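Method: 48-hour compound exposure of cells in 96-well plates, five concentrations, linear interpolation of endpoints. TGI: total growth inhibition.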
Columns and labels:
Assay in all cases: NCI-60 cell line screen, 48 h
CCRF-CEM leukemia = test system: CCRF-CEM leukemia
A549 NSCLC = test system: A549 NSCLC
U251 CNS = test system: U251 CNS
SK-MEL-5 melanoma = test system: SK-MEL-5 melanoma
SNB-19 CNS = test system: SNB-19 CNS
HOP-62 NSCLC = test system: HOP-62 NSCLC
SF-295 CNS = test system: SF-295 CNS
EKVX NSCLC = test system: EKVX NSCLC
BT-549 breast = test system: BT-549 breast
M14 melanoma = test system: M14 melanoma
SK-MEL-28 melanoma = test system: SK-MEL-28 melanoma
A498 renal = test system: A498 renal
OVCAR-3 ovarian = test system: OVCAR-3 ovarian
OVCAR-5 ovarian = test system: OVCAR-5 ovarian
OVCAR-8 ovarian = test system: OVCAR-8 ovarian
TK-10 renal = test system: TK-10 renal
MDA-MB-231 breast = test system: MDA-MB-231 breast
PC-3 prostate = test system: PC-3 prostate
HCC-2998 colon = test system: HCC-2998 colon
CAKI-1 renal = test system: CAKI-1 renal
SF-268 CNS = test system: SF-268 CNS
UO-31 renal = test system: UO-31 renal
SNB-75 CNS = test system: SNB-75 CNS
HCT-116 colon = test system: HCT-116 colon
T-47D breast = test system: T-47D breast
HT29 colon = test system: HT29 colon
SK-MEL-2 melanoma = test system: SK-MEL-2 melanoma
ACHN renal = test system: ACHN renal
K-562 leukemia = test system: K-562 leukemia
MDA-N = test system: MDA-N
MOLT-4 leukemia = test system: MOLT-4 leukemia
NCI-H460 lung = test system: NCI-H460 lung
COLO 205 colon = test system: COLO 205 colon
DU-145 prostate = test system: DU-145 prostate
UACC-257 melanoma = test system: UACC-257 melanoma
IGROV1 ovarian = test system: IGROV1 ovarian
LOX IMVI melanoma = test system: LOX IMVI melanoma
SK-OV-3 ovarian = test system: SK-OV-3 ovarian
NCI-H522 lung = test system: NCI-H522 lung
MALME-3M melanoma = test system: MALME-3M melanoma
MDA-MB-435 = test system: MDA-MB-435
SN12C renal = test system: SN12C renal
786-0 renal = test system: 786-0 renal
HCT-15 colon = test system: HCT-15 colon
NCI-H226 lung = test system: NCI-H226 lung
NCI/ADR-RES ovarian = test system: NCI/ADR-RES ovarian
HOP-92 NSCLC = test system: HOP-92 NSCLC
OVCAR-4 ovarian = test system: OVCAR-4 ovarian
SW-620 colon = test system: SW-620 colon
RPMI-8226 leukemia = test system: RPMI-8226 leukemia
RXF 393 renal = test system: RXF 393 renal
HS 578T breast = test system: HS 578T breast
KM12 colon = test system: KM12 colon
NCI-H23 lung = test system: NCI-H23 lung
UACC-62 melanoma = test system: UACC-62 melanoma
SR leukemia = test system: SR leukemia
MCF7 breast = test system: MCF7 breast
HL-60(TB) leukemia = test system: HL-60(TB) leukemia
SF-539 CNS = test system: SF-539 CNS

Molecule `O=C(Cn1c2ccc(Br)cc2c2nc3ccccc3nc21)NNC(=S)NC1CCCCC1` has a TGI (CCRF-CEM leukemia) of 18.8 µM, a TGI (A549 NSCLC) of 22.4 µM and a TGI (U251 CNS) of 28.3 µM. The TGI (SK-MEL-5 melanoma) was 28 µM, the TGI (SNB-19 CNS) was 33.8 µM and the TGI (HOP-62 NSCLC) was 30.6 µM. For the same molecule, the TGI (SF-295 CNS) was 25.7 µM, the TGI (EKVX NSCLC) was 43.1 µM and the TGI (BT-549 breast) was 42.8 µM. For the same molecule, the TGI (M14 melanoma) was 24.2 µM, the TGI (SK-MEL-28 melanoma) was 31.6 µM and the TGI (A498 renal) was 35.1 µM. For the same molecule, the TGI (OVCAR-3 ovarian) was 22.8 µM, the TGI (OVCAR-5 ovarian) was 38.9 µM and the TGI (OVCAR-8 ovarian) was 27.8 µM. The TGI (TK-10 renal) was 28.7 µM, the TGI (MDA-MB-231 breast) was 31.6 µM and the TGI (PC-3 prostate) was 24 µM. The TGI (HCC-2998 colon) was 34.6 µM, the TGI (CAKI-1 renal) was 38.6 µM and the TGI (SF-268 CNS) was 39.6 µM. For the same molecule, the TGI (UO-31 renal) was 22.3 µM, the TGI (SNB-75 CNS) was 47.5 µM and the TGI (HCT-116 colon) was 26.9 µM. It also gave a TGI (T-47D breast) of 45.8 µM, a TGI (HT29 colon) of 28.9 µM and a TGI (SK-MEL-2 melanoma) of 40.4 µM. For the same molecule, the TGI (ACHN renal) was 29.6 µM, the TGI (K-562 leukemia) was 34.2 µM and the TGI (MDA-N) was 30.4 µM. The TGI (MOLT-4 leukemia) was 22.6 µM, the TGI (NCI-H460 lung) was 24.9 µM and the TGI (COLO 205 colon) was 26 µM. It also gave a TGI (DU-145 prostate) of 29.4 µM, a TGI (UACC-257 melanoma) of 30 µM and a TGI (IGROV1 ovarian) of 23.6 µM. The TGI (LOX IMVI melanoma) was 24.9 µM, the TGI (SK-OV-3 ovarian) was 70.8 µM and the TGI (NCI-H522 lung) was 27.6 µM. For the same molecule, the TGI (MALME-3M melanoma) was 39.5 µM, the TGI (MDA-MB-435) was 34.2 µM and the TGI (SN12C renal) was 35.6 µM. The TGI (786-0 renal) was 28.9 µM, the TGI (HCT-15 colon) was 25.4 µM and the TGI (NCI-H226 lung) was 33.6 µM. The TGI (NCI/ADR-RES ovarian) was 34.5 µM, the TGI (HOP-92 NSCLC) was 27.1 µM and the TGI (OVCAR-4 ovarian) was 41.2 µM. The TGI (SW-620 colon) was 29.2 µM, the TGI (RPMI-8226 leukemia) was 26.8 µM and the TGI (RXF 393 renal) was 23.4 µM. The TGI (HS 578T breast) was 52.9 µM, the TGI (KM12 colon) was 48.2 µM and the TGI (NCI-H23 lung) was 30.5 µM. It also gave a TGI (UACC-62 melanoma) of 43.2 µM.
`O=[N+]([O-])c1ccc(Sc2c3ccccc3nc3ccccc23)cn1` showed a TGI (CCRF-CEM leukemia) of 8.3 µM, a TGI (A549 NSCLC) greater than 100 µM and a TGI (U251 CNS) greater than 60.1 µM. It also gave a TGI (SK-MEL-5 melanoma) greater than 100 µM, a TGI (SNB-19 CNS) greater than 66.6 µM and a TGI (HOP-62 NSCLC) greater than 65.7 µM. The TGI (SR leukemia) was greater than 100 µM, the TGI (SF-295 CNS) was greater than 100 µM and the TGI (EKVX NSCLC) was greater than 86.2 µM. It also gave a TGI (BT-549 breast) of 28.8 µM, a TGI (M14 melanoma) of 31.5 µM and a TGI (SK-MEL-28 melanoma) of 58.4 µM. It also gave a TGI (A498 renal) greater than 100 µM, a TGI (OVCAR-3 ovarian) of 20.3 µM and a TGI (OVCAR-5 ovarian) greater than 100 µM. It also gave a TGI (OVCAR-8 ovarian) of 52.5 µM, a TGI (TK-10 renal) of 28.6 µM and a TGI (MDA-MB-231 breast) of 42.5 µM. For the same molecule, the TGI (PC-3 prostate) was 38.1 µM, the TGI (HCC-2998 colon) was greater than 81.7 µM and the TGI (CAKI-1 renal) was 11.7 µM. The TGI (SF-268 CNS) was 52.4 µM, the TGI (UO-31 renal) was 32.3 µM and the TGI (SNB-75 CNS) was greater than 63.4 µM. It also gave a TGI (HCT-116 colon) of 11.9 µM, a TGI (T-47D breast) of 19.9 µM and a TGI (HT29 colon) of 28 µM. For the same molecule, the TGI (SK-MEL-2 melanoma) was 48.1 µM, the TGI (ACHN renal) was 17.4 µM and the TGI (K-562 leukemia) was 6.66 µM. The TGI (MDA-N) was 31.8 µM, the TGI (MOLT-4 leukemia) was 6.62 µM and the TGI (MCF7 breast) was 19.1 µM. The TGI (NCI-H460 lung) was greater than 100 µM, the TGI (COLO 205 colon) was 10.4 µM and the TGI (DU-145 prostate) was 26.5 µM. The TGI (UACC-257 melanoma) was 31.8 µM, the TGI (IGROV1 ovarian) was greater than 64.7 µM and the TGI (LOX IMVI melanoma) was 26.9 µM. For the same molecule, the TGI (SK-OV-3 ovarian) was greater than 93 µM, the TGI (NCI-H522 lung) was 10.8 µM and the TGI (MALME-3M melanoma) was 19.9 µM. For the same molecule, the TGI (MDA-MB-435) was 33.2 µM, the TGI (SN12C renal) was 43.2 µM and the TGI (786-0 renal) was 8.48 µM. It also gave a TGI (HL-60(TB) leukemia) greater than 61.7 µM, a TGI (HCT-15 colon) of 28.8 µM and a TGI (NCI-H226 lung) greater than 100 µM. For the same molecule, the TGI (NCI/ADR-RES ovarian) was greater than 100 µM, the TGI (HOP-92 NSCLC) was 16.9 µM and the TGI (OVCAR-4 ovarian) was 75.9 µM. For the same molecule, the TGI (SW-620 colon) was greater than 57.4 µM, the TGI (RXF 393 renal) was 60.3 µM and the TGI (HS 578T breast) was 29.7 µM. For the same molecule, the TGI (KM12 colon) was 95.1 µM, the TGI (SF-539 CNS) was greater than 20.5 µM and the TGI (NCI-H23 lung) was greater than 47.8 µM. It also gave a TGI (UACC-62 melanoma) of 35 µM.
